Results on 18 molecules are retold here after patent publication US4778912A, “Phospholipid derivatives” (priority 1985, dated 1988).

Molecules are shown by their SMILES. pEC50: −log10 of the molar value. In brackets after ≈: the same amount, converted by molar mass. Read-outs that look alike come from different tables or passages of the source.

The test system of assay [1] is Sarcoma 180 cells. The experiment in a line: Antitumor action in ICR mice inoculated intraperitoneally with Sarcoma 180 cells (life-span prolongation, 60-day survivors). The following applies: for responders at 0.33 mg: read-out: 60th day: No. of survived mice/No. of tested mice (converted); for response vs control in vivo at 0.33 mg: read-out: Life-span prolongation ratio (T/C %). It is filed as in vivo.
Method: The assay was carried out under the same conditions as Test Example 1-i.

In assay [2] the test system is platelet. The conditions noted are these: cited from earlier work.
The subject of assay [3] is MM46 cells. The experiment in a line: Antitumor action in C3H/He mice inoculated intraperitoneally with MM46 cells (life-span prolongation, 60-day survivors). It is filed as in vivo. The following applies: for responders at 0.25 mg: 1440 h, read-out: 60th day: No. of survived mice/No. of tested mice (converted); for response vs control in vivo at 0.25 mg: read-out: Life-span prolongation ratio (T/C %).
Method: (i) C3H/He mice (a group consisting of five mice) were inoculated intraperitoneally with 1×10^4 MM46 cells per mouse, and each mouse was intraperitoneally given 0.25 mg of drug for consecutive 4 days, starting from the second day after the inoculation.
(ii) In the above test, each mouse was inoculated intraperitoneally with 1×10^5 MM46 cells and 0.25 mg of drug was given intraperitoneally to each mouse for consecutive 4 days, starting from the second day after the inoculation.
The assay was carried out under the same conditions as Test Example 2-i.

Assay [4] has as its system human myelogenous leukemia cells HL-60. The experiment in a line: Multiplication-inhibiting effect against human myelogenous leukemia cells HL-60. It is filed as cell-based. The conditions noted are these: Table 4, read-out: Multiplication inhibition against HL-60 (IC50). As to the method: Shown in Table 4 is the multiplication-inhibiting effect (IC50) of the compound of the present invention against human myelogenous leukemia cells HL-60. The assay was conducted according to the method of R. Gallo et al.: Blood, Vol 54, 713 (1979).

The subject of assay [5] is PAF-induced platelet aggregation. Kind of assay: Inhibition action against PAF in platelet aggregation (Washed PRP). It is filed as cell-based, male rabbit. The following applies: Oryctolagus cuniculus. Here is the method:
Blood was collected from a male rabbit, using a syringe containing 3.15% of citric acid (at a ratio of 1 part to 9 parts of blood) as an anticoagulant and centrifuged at 1,000 r.p.m. at room temperature for 10 minutes to obtain platelet rich plasma (PRP). This PRP was further centrifuged at 1,400 r.p.m. for 15 minutes to obtain platelet pellet, which was then suspended in Ca^++ -free Tyrode (containing 0.25% of gelatin) to prepare Washed PRP. 250 μl of the Washed PRP was stirred at 37° C. for 2 minutes, and admixed with 25 μl of 0.2-0.5 mM Ca^++ solution, followed by stirring for another 30 seconds. Then, a test compound was added to the mixture to a concentration of 3×10^-5 M and after further stirring for 2 minutes, 3×10^-7 M of PAF was added to the mixture. Platelet aggregation was measured by using a platelet aggregometer (manufactured by Rika Denki Co. in Japan). The activity of the test compound was determined from an inhibition ratio for maximum transmission (i.e. maximum aggregation ratio) by PAF in the control PRP.
Inhibition activity against PAF in platelet aggregation was assayed under the same conditions as Test Example 5.

The subject of assay [6] is platelet. Kind of assay: Effect on platelet: platelet aggregation (PAF activity) in platelet rich plasma. Format: cell-based, male rabbit. The following applies: Oryctolagus cuniculus, Table 5, rabbit PRP, 400,000 cells/1 μl, read-out: PAF activity EC50 (drug concentration causing 50% platelet aggregation). As to the method:
This PRP was further centrifuged at 3,000 r.p.m. for 15 minutes to obtain platelet poor plasma (PPP). By using this PPP, the PRP was diluted and so adjusted as to have a constant platelet concentration (400,000 cells/1 μl). […] Platelet aggregation was measured by using a platelet aggregometer (manufactured by Rika Denki Co. in Japan).

Assay [7] deals with tumor. The following applies: background; cited from earlier work.
[8] abbreviates: Sarcoma-180, 1440 h, Table 1, 0.33 mg/mouse ip, three times.
The mark [9] stands for this setting: Table 1, 1×10^5 Sarcoma 180 cells ip, 0.33 mg/mouse ip, three times (1 hour, 1 day, 2 days after inoculation), only mice surviving less than 60 days.
Setting [10] is: Table 6, test compound 3×10^-5 M, PAF 3×10^-7 M, read-out: Inhibition ratio.
The mark [11] stands for this setting: Mus musculus, Sarcoma-180, ip, 1440 h, Table 7, same conditions as Test Example 1-i.
Where [12] appears, read: Mus musculus, Sarcoma-180, ip, Table 7, same conditions as Test Example 1-i.
The mark [13] stands for this setting: Mus musculus, ip, Table 8, same conditions as Test Example 2-i.
[14] abbreviates: Table 10, same conditions as Test Example 5, read-out: Inhibition ratio.

Turning to `CCCCCCCCCCCCCCCCCCOCC(COP(=O)([O-])OCC[N+](C)(C)C)OC(=O)CCC` (stereo not drawn) [Compound (IV), reference compound], the responders at 0.33 mg in assay [1] (setting [8]) was 0%. Also, the response vs control in vivo at 0.33 mg in assay [1] (setting [9]) was 109%. The “platelet activating action relative to that of PAF (II)” value in assay [2] (Thrombosis Research, 30, 143 (1983)) is recorded as “about 1/10”.
As for `CCCCCCCCCCCCCCCCCCOCC(COP(=O)([O-])OCC[N+](C)(C)C)OC(=O)N(C)C` (stereo not drawn) [Compound (V)], the “platelet activating / platelet aggregation action (in words)” value in assay [2] (background) was “remarkably strong platelet activating activity”.
Take `CCCCCCCCCCCCCCCCCCOCC(COP(=O)([O-])OCCCCCCCCCC[N+](C)(C)C)OC(=O)CC(C)=O` (stereo not drawn) [Example 3, 2-(Acetoacetyloxy)-3-(octadecyloxy)propyl 10-trimethylammoniodecyl phosphate]: in assay [1] (1 mg/mouse, otherwise as Test Example 1-i), the “life-span prolongation ratio (T/C %)” value was determined as 369%. In addition, in assay [1] (1 mg/mouse, group of 5 mice), the “number of survived mice on the 60th day” value is listed as 2 mice. The responders at 0.33 mg in assay [1] (setting [8]) was 40%. Moreover, the response vs control in vivo at 0.33 mg in assay [1] (setting [9]) stood at 326%. Further, in assay [3] (Table 2, 1×10^4 MM46 cells, 0.25 mg/mouse ip, 4 days), the responders at 0.25 mg was 80%. Besides, the response vs control in vivo at 0.25 mg was determined as 132% in assay [3] (Mus musculus, ip, Table 2, 1×10^4 MM46 cells ip, 0.25 mg/mouse ip for consecutive 4 days from second day, only mice surviving less than 60 days) and 125% in assay [3] (Mus musculus, ip, Table 3, 1×10^5 MM46 cells ip, 0.25 mg/mouse ip for consecutive 4 days, only mice surviving less than 60 days). In addition, in assay [3] (Table 3, 1×10^5 MM46 cells, 0.25 mg/mouse ip, 4 days), the “60th day: No. of survived mice/No. of treated mice” value is on record as 4/5. The IC50 (commonly the point on the concentration scale where inhibition reaches its midpoint) in assay [4] turned out to be 1.5 µg/mL. The inhibition at 30 µM in assay [5] (setting [10]) was 72%.
On to `CCCCCCCCCCCCCCCCCCC(=O)COCC(COP(=O)([O-])OCCCCCCCCCC[N+](C)(C)C)OC` (stereo not drawn) [Example 6, 2-Methoxy-3-(2-oxoeicocyloxy)propyl 10-trimethylammoniodecyl phosphate], for which the responders at 0.33 mg in assay [1] (setting [11]) is 0%. In addition, in assay [1] (setting [12]), the response vs control in vivo at 0.33 mg came out at 242%. In assay [3] (setting [13]), the responders at 0.25 mg was 80% and the response vs control in vivo at 0.25 mg worked out at 145%.
Turning to `CCCCCCCCCCCCCCCCCCOCC(COP(=O)([O-])OCCCCCCCCCC[N+](C)(C)C)OC(=O)NC` (stereo not drawn) [Example 8, 2-Methylcarbamoyloxy-3-octadecyloxypropyl 10-trimethylammoniodecyl phosphate], the inhibition at 30 µM in assay [5] (setting [14]) is 100%.
`CCCCCCCCCCCCCCCCCCOCC(COP(=O)([O-])OCCCCCCCCCC[N+](C)(C)C)OC(=S)NC` (stereo not drawn) [Example 9, 2-Methylthiocarbamoyloxy-3-octadecyloxypropyl 10-trimethylammoniodecyl phosphate]: in assay [3] (setting [13]), the responders at 0.25 mg was 40% and the response vs control in vivo at 0.25 mg turned out to be 170%. Also, the inhibition at 30 µM in assay [5] (setting [14]) was 55%.
Consider `CCCCCCCCCCCCCCCCCCOCC(COP(=O)([O-])OCCCCCCCCCC[N+](C)(C)C)OC` (stereo not drawn) [Example 10, 2-Methoxy-3-octadecyloxypropyl 10-trimethylammoniodecyl phosphate], for which the responders at 0.33 mg in assay [1] (setting [11]) was 0%. The response vs control in vivo at 0.33 mg in assay [1] (setting [12]) amounted to 212%. Moreover, in assay [3] (setting [13]), the responders at 0.25 mg is 40% and the response vs control in vivo at 0.25 mg is 249%. In assay [5] (setting [14]), the inhibition at 30 µM was 53%.
Take `CCCCCCCCCCCCCCCCCCNC(=O)OCC(COP(=O)([O-])OCCCCCCCCCC[N+](C)(C)C)OC` (stereo not drawn) [Example 11, 3-Octadecylcarbamoyloxy-2-methoxypropyl 10-trimethylammoniodecyl phosphate]: the responders at 0.33 mg in assay [1] (setting [11]) is 0%. In addition, in assay [1] (setting [12]), the response vs control in vivo at 0.33 mg stood at 253%. In assay [3] (setting [13]), the responders at 0.25 mg is 40% and the response vs control in vivo at 0.25 mg is 186%.
Turning to `CCCCCCCCCCCCCCCCCCOCC(COP(=O)([O-])OCCCCCCCCCC[N+](C)(C)C)OCC(C)=O` (stereo not drawn) [Example 18, 3-(Octadecyloxy)-2-(2-oxopropyloxy)propyl 10-trimethylammoniodecyl phosphate], the pEC50 in assay [6] was below 4.00. The inhibition at 30 µM in assay [5] (setting [10]) stood at 100%.
`CCCCCCCCCCCCCCCCCCOCC(COP(=O)([O-])OCCCCCCCC[N+](C)(C)C)OC(=O)CC(C)=O` (stereo not drawn) [Example 29, 2-(Acetoacetoxy)-3-(octadecyloxy)propyl 8-trimethylammoniooctyl phosphate]: the inhibition at 30 µM in assay [5] (setting [14]) was determined as 96%.
In the case of `COC(COCCCCCCCCCCCCC1CCCCC1)COP(=O)([O-])OCCCCCCCCCC[N+](C)(C)C` (stereo not drawn) [Example 33, 3-(12-Cyclohexyldodecyloxy)-2-methoxypropyl 10-trimethylammoniodecyl phosphate], in assay [1] (setting [11]), the responders at 0.33 mg is 0%. Besides, in assay [1] (setting [12]), the response vs control in vivo at 0.33 mg amounted to 266%. Also, the inhibition at 30 µM in assay [5] (setting [14]) was 100%.
For `COC(COCCCCCCCCCCCCCCC(C)C)COP(=O)([O-])OCCCCCCCCCC[N+](C)(C)C` (stereo not drawn) [Example 39, 2-Methoxy-3-(15-methylhexadecyloxy)propyl 10-trimethylammoniodecyl phosphate] the same measures were 0%, 265% and 69%.
In the case of `CC(=O)CC(=O)OC(COCCCCCCCCCCCCCCC(C)C)COP(=O)([O-])OCCCCCCCCCC[N+](C)(C)C` (stereo not drawn) [Example 43, 2-(Acetoacetyloxy)-3-(15-methylhexadecyloxy)propyl 10-trimethylammoniodecylphosphate], in assay [1] (setting [11]), the responders at 0.33 mg is 40%. Besides, in assay [1] (setting [12]), the response vs control in vivo at 0.33 mg was 128%. Also, in assay [3] (setting [13]), the responders at 0.25 mg is 0% and the response vs control in vivo at 0.25 mg was 232%. The inhibition at 30 µM in assay [5] (setting [14]) is 100%.
Regarding `CCCCCCCCCCCCCCCCCCOCC(COP(=O)([O-])OCCCCCCCC[N+](C)(C)C)OC(=O)NC` (stereo not drawn) [Example 44, 2-Methylcarbamoyloxy-3-octadecyloxypropyl 8-trimethylammoniooctyl phosphate], the inhibition at 30 µM in assay [5] (setting [14]) came to 100%.
For `CCCCCCCCCCCCCCCCCCOCC(COP(=O)([O-])OCCCCCCCCCC[N+](C)(C)C)OCC(=O)O` (stereo not drawn) [Example 46, 2-(Carboxymethyloxy)-3-(octadecyloxy)propyl 10-trimethylammoniodecyl phosphate], in assay [1] (setting [11]), the responders at 0.33 mg is 0%. Also, the response vs control in vivo at 0.33 mg in assay [1] (setting [12]) stood at 335%. For the same molecule, in assay [3] (setting [13]), the responders at 0.25 mg is 20% and the response vs control in vivo at 0.25 mg was 287%.
For `CCCCCCCCCCCCCCCCCCOCC(COP(=O)([O-])OCC[N+](C)(C)C)OC(=O)CC(C)=O` (stereo not drawn) [Reference compound 1, reference compound], the IC50 in assay [4] is 6.6 µg/mL (≈ 11.1 µM). Moreover, in assay [5] (setting [10]), the inhibition at 30 µM worked out at 0%.
`CCCCCCCCCCCCCCCCCCOCC(COP(=O)([O-])OCCC[N+](C)(C)C)OC(=O)CC(C)=O` (stereo not drawn) [Reference compound 2, reference compound]: the IC50 in assay [4] was 11 µg/mL (≈ 18.1 µM). Besides, the inhibition at 30 µM in assay [5] (setting [10]) turned out to be 0%.
Consider `CCCCCCCCCCCCCCCCCCNC(=O)OCC(COP(=O)([O-])OCC[N+](C)(C)C)OC` (stereo not drawn) [VI, reference compound], for which, in assay [1] (setting [8]), the responders at 0.33 mg was 0%. For the same molecule, the response vs control in vivo at 0.33 mg in assay [1] (setting [9]) turned out to be 202%. The “antitumor action (in words)” value in assay [7] is “not sufficient”.
